Data from patent publication US20140130191A1, “METHODS FOR TREATING IMMUNE-MEDIATED DISEASES OF THE NERVOUS SYSTEM ADMINISTERING A COMPOUND COMPRISING AGENTS THAT INHIBIT PROKINETICIN RECEPTORS ACTIVITY” (FONDAZIONE I.R.C.C.S. ISTITUTO NEUROLOGICO "CARLO BESTA", priority 2011, published 2014).

Tests used:
[1] = tested on: relapsing-remitting PLP139-151 induced EAE in SJL mice; assay: Relapsing-remitting EAE in SJL mice, preventive treatment regimen; type: in vivo; details: for Incidence (%): PLP139-151 in CFA; for severity of the disease (in words): preventive treatment, 500 μg/kg
Source text: (§1) The relapsing-remitting EAE model was obtained in female SJL mice by immunization with myelin proteolipid protein fragment 139-151 (PLP139-151) in complete Freund's adjuvant (CFA) [Pedotti et al., Nat Immunol 2001]. The chronic EAE model was obtained in C57BL/6 mice as mentioned before.
(§2) We used non-peptide prokineticin receptors antagonist drugs called PC1 and PC7 (whose chemical structure is shown in FIG. 1) to chronically treat the mice starting both from the time of induction of EAE (day 0; preventive treatment) and from the onset of the first symptoms of EAE (day 10-12, approximately; therapeutic treatment).
(§3) With reference to FIG. 4, the non-peptide prokineticin receptor 1 and 2 antagonist PCI was administered intraperitoneally to 8-12 week old female SJL mice in which EAE had been induced by immunization with PLP139-151 (100 μg/mouse) in CFA. The PC1 was given at a dose of 500 μg/kg (n=10). As a control, an equal amount of saline solution was injected (vehicle) (n=10). The treatments began at the time of induction of EAE (preventive treatment), or, more specifically, 4 hours after the induction of EAE. Ten mice per group were used. The graph represents the average daily disease score±standard error of the mean (SEM). A scale of 0 to 5 was used to attribute the score, where 0 is the absence of symptoms and 5 is death (as described in Pedotti et al, Nat Immunol 2001). *p<0.05 for two-tailed unpaired Student's t test vs Control. The results are representative of three consecutive experiments that gave similar results.
as §3, with “6,” for “4,”, “PC-7” for “PCI”, “PC7” for “PC1”, “μg /kg” for “μg/kg”, “(SEM).” for “(SEM). A scale of 0 to 5 was used to attribute the score, where 0 is the absence of symptoms and 5 is death (as described in Pedotti et al, Nat Immunol 2001). *p<0.05 for two-tailed unpaired Student's t test vs Control.”

[2] = tested on: splenocytes; assay: T-cell response in splenocytes of mice with relapsing-remitting EAE, restimulated in vitro with PLP139-151; type: cell-based
Method: With reference to FIG. 5, 8-12 week old female SJL mice in which EAE had been induced by immunization with PLP139-151 in CFA were preventively treated (day 0) with PC1 at a dose of 500 μg/kg per day, or with vehicle as described in FIG. 4. The splenocytes were obtained 35 days after immunization with PLP139-151, and were restimulated in vitro with the antigen PLP139-151 at different concentrations or with the medium.
To assay proliferation, after 48 hours of incubation with 5% Co2 at 37° C., the cultures were loaded for 18 hours with 0.5 μCi 3H-thymidine per well. To assay cytokine production, splenocytes were restimulated in vitro with the antigen PLP139-151 at different concentrations or with the medium. The concentration of Interferon-gamma (IFN-gamma), tumour necrosis factor (TNF), Interleukine-6 (IL-6), IL-17, IL-4, and IL-10 was determined in duplicate using the ELISA technique (ELISA DuoSet, Pharmingen, CA). The results are representative of two consecutive experiments that gave similar results.

[3] = tested on: chronic MOG35-55 induced EAE in C57B1/6 mice; assay: Chronic EAE in C57B1/6 mice, preventive treatment regimen; type: in vivo
Source text: (§4) In the study conducted we verified the expression of PK-2 and its receptors PK-R1 and PK-R2 in the experimental model of chronic EAE, an experimental model of MS. The chronic EAE model was obtained in C57B1/6 mice by immunization with myelin oligodendrocyte glycoprotein peptide fragment 35-55 (MOG35-55) and PTX (Pertussis toxin) [Pedotti et al., PNAS 2003]. During chronic EAE, we observed an increase of mRNA expression of PK-2 by lymph node cells and purified CD4+ T cells in C57B1/6 mice during the disease. This increase of mRNA expression started before the onset of the disease and is less significant after its onset (FIG. 2). We observed also an important increase of the levels of the protein PK-2 in the serum of mice with MOG35-55 induced EAE (FIG. 3). This increase of PK-2 was accompanied by a dramatic reduction of PK-R2 expression in lymph node cells and CD4+T cells. […] Thus, the couple PK-2/PK-R1 seemed to play an important role during EAE, the experimental model of MS.
as §2
With reference to FIG. 9, the non-peptide prokineticin receptor 1 and 2 antagonist PC7 was administered intraperitoneally to 8-12 week old female C57B1/6 mice in which chronic EAE had been induced by immunization with MOG35-55 (100 μg/mouse) and PTX (400 ng/mouse). The PC-7 was given at a dose of 500 μg/kg (n=10). As a control, an equal amount of saline solution was injected (vehicle) (n=10). The treatments began at the time of induction of EAE (preventive treatment), or, more specifically, 4 hours after the induction of EAE. Ten mice per group were used. The graph represents the average daily disease score±standard error of the mean (SEM). The results are representative of three consecutive experiments that gave similar results.

[4] = tested on: relapsing-remitting PLP139-151 induced EAE in SJL mice; assay: Relapsing-remitting EAE in SJL mice, therapeutic treatment regimen; type: in vivo
Source text: as §1, §2
With reference to FIG. 7, the non-peptide prokineticin receptor 1 and 2 antagonist PC-7 was administered intraperitoneally to 8-12 week old female SJL mice in which EAE had been induced by immunization with PLP139-151 (100 μg/mouse) in CFA. The PC-7 was given at a dose of 500 μg/kg (n=10). As a control, an equal amount of saline solution was injected (control) (n=10). The treatments began on the appearance of the first symptoms of the disease (Day 11). Ten mice per group were used. The graph represents the average daily disease score±standard error of the mean (SEM). The results are representative of three consecutive experiments that gave similar results.

[5] = tested on: DLN cells; assay: T-cell response in draining lymph node cells of mice with chronic EAE, restimulated in vitro with MOG35-55; type: cell-based; details: restimulated with MOG35-55, vs vehicle
Method: With reference to FIG. 11, 8-12 week old female C57B1/6 mice in which chronic EAE had been induced by immunization with MOG35-55 were preventively treated (day 0) with PC-7 at a dose of 500 μg/kg per day or with a vehicle as described in the previous experiments. The draining lymph nodes (DLN, inguinal and axillary) were obtained 10 days after immunization with MOG35-55. To assay proliferation, the DLN cells were restimulated in vitro with MOG35-55 at different concentrations, with Concanavalin A (2 μg/ml), or with the medium. Data are expressed as mean cpm±SEM, ng/ml±SEM, or pg/ml±SEM.
(§5) After 48 hours of incubation with 5% Co2 at 37° C., the cultures were loaded for 18 hours with 0.5 μCi 3H-thymidine per well.
To assay cytokine production, DLN cells were restimulated in vitro with MOG35-55 at different concentrations or with the medium.

[6] = tested on: DLN cells; assay: T-cell response in draining lymph node cells of mice with relapsing-remitting EAE, restimulated in vitro with PLP139-151; type: cell-based; details: restimulated with PLP139-151, vs vehicle
Method: With reference to FIG. 8, 8-12 week old female SJL mice in which EAE had been induced by immunization with PLP139-151 in CFA were preventively treated (day 0) with PC-7 at a dose of 500 μg/kg per day or with vehicle as described in the previous experiments. The draining lymph nodes (DLN, inguinal and axillary) were obtained 7 days after immunization with PLP139-151. To assay proliferation, the DLN cells were restimulated in vitro with the antigen PLP139-151 at different concentrations, with Concanavalin A (2 μg /ml), or with the medium.
as §5
To assay cytokine production, DLN cells were restimulated in vitro with the antigen PLP139-151 at different concentrations or with the medium. Data are expressed as mean cpm±SEM, ng/ml±SEM, or pg/ml±SEM.

[7] = tested on: chronic MOG35-55 induced EAE in C57B1/6 mice; assay: Chronic EAE in C57B1/6 mice, therapeutic treatment regimen; type: in vivo
Source text: as §4, §2
With reference to FIG. 10, the non-peptide prokineticin receptor 1 and 2 antagonist PC-7 was administered intraperitoneally to 8-12 week old female C57B1/6 mice in which chronic EAE had been induced by immunization with MOG35-55 (100 μg/mouse) and PTX (400 ng/mouse). The PC-7 was given at a dose of 500 μg /kg (n=10). As a control, an equal amount of saline solution was injected (vehicle) (n=10). The treatments began on the onset of the first symptoms of the disease (day 12). Ten mice per group were used. The graph represents the average daily disease score±standard error of the mean (SEM). The results are representative of two consecutive experiments that gave similar results.

[8] = SJL mice, 500 μg/kg i.p., preventive, Table 1
[9] = splenocytes, restimulated with PLP139-151, ELISA, vs vehicle
[10] = C57B1/6 mice, 500 μg/kg i.p., preventive
[11] = SJL mice, 500 μg/kg i.p., preventive, Table 2
[12] = SJL mice, 500 μg/kg i.p. from first symptoms (Day 11), therapeutic
[13] = DLN cells, relapsing-remitting EAE
[14] = C57B1/6 mice, 500 μg/kg i.p. from first symptoms (day 12), therapeutic

## CCc1ccc(Cn2c(=O)nc(NCCNC(=N)N)n(Cc3ccc(OC)cc3)c2=O)cc1 [PC1]
[1]; [8]
  Cumulative disease score: 24.8 ± 9.0 *
  Onset of disease (Day): 12.4 ± 1.0 * Day
[1]; SJL mice, 500 μg/kg i.p., preventive, score scale 0 to 5, Table 1
  Peak of disease Severity: 1.7 ± 0.4 *
[1]; SJL mice, 500 μg/kg intraperitoneally from induction of EAE (preventive), Table 1
  Incidence (%): 70% (7/10)
[1]; relapsing-remitting EAE
  severity of the disease (in words): reduction in the severity of the disease
[1]; relapsing-remitting EAE, treated from the time of induction of EAE
  onset of the disease (in words): delay in the onset of the disease
[2]; splenocytes 35 days after immunization, mice treated 500 μg/kg per day preventively, restimulated with PLP139-151, vs vehicle
  peptide-specific T cells proliferation: reduction
[2]; [9]
  production of IFN-gamma: reduction
  production of IL-4: increasing
  production of TNF: reduction

## COc1ccc(Cn2c(NCCNC(=N)N)nc(=O)n(Cc3ccc(F)cc3)c2=O)cc1 [PC7]
[3]; [10]
  Cumulative disease score: 41.1 ± 11.8
  Onset of disease: 16.8 ± 1.7 days
  Peak in disease Severity: 2.5 ± 0.5
[3]; C57B1/6 mice, MOG35-55 and PTX, 500 μg/kg i.p. from induction of EAE (preventive)
  Incidence (%): 90% (9/10)
[3]; chronic EAE, preventive treatment
  severity of the disease (in words): significant reduction in the severity of the disease
[1]; [11]
  Cumulative disease score: 21.2 ± 5.1 *
  Onset of disease (Day): 11.4 ± 0.1 * Day
  Peak in disease Severity: 2.2 ± 0.3 *
[1]; SJL mice, 500 μg/kg i.p. from induction of EAE (preventive), Table 2
  Incidence (%): 90% (9/10)
[1]; relapsing-remitting EAE
  severity of the disease (in words): significantly reduces the severity of the disease
[4]; [12]
  Cumulative disease score: 42.3 ± 7.5
  Incidence (%): 100% (10/10)
  Peak in disease Severity: 2.6 ± 0.3
[4]; relapsing-remitting EAE, therapeutic treatment, 500 μg/kg
  severity of the disease (in words): significantly reduces the severity of the disease
[5]; DLN cells 10 days after immunization, mice treated 500 μg/kg per day preventively
  peptide-specific T cells proliferation: reduction
[5]; DLN cells, chronic EAE
  production of IFN-gamma: reduction
  production of IL-10: increasing
  production of IL-17: reduction
  production of TNF: reduction
[6]; DLN cells 7 days after immunization, mice treated 500 μg/kg per day preventively
  proliferation of lymph node cells: reduced proliferation
[6]; [13]
  levels of IL-17A: slight reduction
  levels of interleukin IL-6: increase
  levels of interleukin IL-10: increase
  production of IFN: significantly lower
  production of TNF: significantly lower
[7]; [14]
  Cumulative disease score: 50.9 ± 11.8
  Incidence (%): 100% (10/10)
  Peak in disease Severity: 3.3 ± 0.3
[7]; chronic EAE, therapeutic treatment, 500 μg/Kg
  severity of the disease (in words): significant reduction in the severity of the disease
